Like-named read-outs stand apart in the source and are kept apart here.
Legend:
Assay in all cases: SelectScreen Kinase Profiling, single point inhibition and IC50 for off-target kinases
Assay type in all cases: biochemical
off-target kinases [1] = molecular target: off-target kinases (Homo sapiens, UniProt Q8IU85); conditions: CAMK1D (CaMKI delta), ZLYTE, ATP Km app
off-target kinases [2] = molecular target: off-target kinases (Homo sapiens, UniProt Q96GD4); conditions: AURKB (Aurora B), ATP Km app, ZLYTE
off-target kinases (Homo sapiens, UniProt Q96GD4), sequence (Q96GD4 whole entry): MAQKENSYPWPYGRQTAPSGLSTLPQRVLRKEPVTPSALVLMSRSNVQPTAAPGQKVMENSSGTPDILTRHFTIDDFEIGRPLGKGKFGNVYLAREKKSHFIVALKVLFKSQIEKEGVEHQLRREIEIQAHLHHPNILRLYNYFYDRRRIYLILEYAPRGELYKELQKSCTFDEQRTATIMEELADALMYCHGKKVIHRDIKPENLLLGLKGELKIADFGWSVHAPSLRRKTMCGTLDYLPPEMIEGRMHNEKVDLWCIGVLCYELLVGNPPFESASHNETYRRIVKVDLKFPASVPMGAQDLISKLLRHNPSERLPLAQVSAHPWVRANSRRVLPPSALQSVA

off-target kinases [3] = molecular target: off-target kinases (Homo sapiens, UniProt Q9NQU5); conditions: PAK6, ZLYTE, ATP Km app
off-target kinases (Homo sapiens, UniProt Q9NQU5), sequence (Q9NQU5 whole entry): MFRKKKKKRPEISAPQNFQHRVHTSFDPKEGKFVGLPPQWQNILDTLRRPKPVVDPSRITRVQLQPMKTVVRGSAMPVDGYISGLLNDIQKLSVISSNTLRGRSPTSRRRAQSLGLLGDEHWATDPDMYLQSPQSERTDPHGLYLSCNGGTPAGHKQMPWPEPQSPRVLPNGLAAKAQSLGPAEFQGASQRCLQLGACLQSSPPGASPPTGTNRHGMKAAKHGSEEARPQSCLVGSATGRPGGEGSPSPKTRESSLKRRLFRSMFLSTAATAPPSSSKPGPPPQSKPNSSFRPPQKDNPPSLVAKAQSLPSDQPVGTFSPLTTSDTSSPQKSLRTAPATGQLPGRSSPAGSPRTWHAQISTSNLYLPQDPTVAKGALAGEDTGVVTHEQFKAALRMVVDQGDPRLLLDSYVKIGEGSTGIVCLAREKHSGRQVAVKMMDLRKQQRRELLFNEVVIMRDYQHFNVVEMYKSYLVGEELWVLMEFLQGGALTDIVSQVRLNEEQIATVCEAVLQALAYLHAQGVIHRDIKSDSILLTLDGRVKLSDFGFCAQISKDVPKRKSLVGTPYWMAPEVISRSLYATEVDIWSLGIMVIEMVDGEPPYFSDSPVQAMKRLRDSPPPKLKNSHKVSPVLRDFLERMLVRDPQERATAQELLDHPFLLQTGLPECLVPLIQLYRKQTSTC

off-target kinases [4] = molecular target: T1, off-target kinases (Homo sapiens, UniProt O15111); conditions: CHUK (IKK alpha), ATP Km app, Adapta
T1 sequence (O15111 1-745): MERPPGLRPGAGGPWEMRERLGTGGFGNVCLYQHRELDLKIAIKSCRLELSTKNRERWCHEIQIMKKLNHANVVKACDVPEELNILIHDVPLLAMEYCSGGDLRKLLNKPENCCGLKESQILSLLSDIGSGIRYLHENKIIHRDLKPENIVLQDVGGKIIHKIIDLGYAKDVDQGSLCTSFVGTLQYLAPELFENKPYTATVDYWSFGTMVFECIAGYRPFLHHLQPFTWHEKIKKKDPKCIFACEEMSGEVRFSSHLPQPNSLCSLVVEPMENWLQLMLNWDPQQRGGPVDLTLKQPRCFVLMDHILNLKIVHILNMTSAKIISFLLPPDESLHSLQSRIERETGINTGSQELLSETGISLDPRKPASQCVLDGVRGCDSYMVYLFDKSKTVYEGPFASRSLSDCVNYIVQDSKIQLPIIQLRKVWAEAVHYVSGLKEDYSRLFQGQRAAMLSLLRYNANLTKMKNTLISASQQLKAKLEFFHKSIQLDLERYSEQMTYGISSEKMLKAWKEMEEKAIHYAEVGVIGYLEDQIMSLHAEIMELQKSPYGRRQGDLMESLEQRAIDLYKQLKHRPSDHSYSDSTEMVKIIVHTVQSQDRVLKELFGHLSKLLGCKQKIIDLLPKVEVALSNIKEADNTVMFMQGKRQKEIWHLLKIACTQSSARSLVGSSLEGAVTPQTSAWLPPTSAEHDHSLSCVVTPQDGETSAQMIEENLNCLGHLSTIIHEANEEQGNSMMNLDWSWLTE

off-target kinases [5] = molecular target: off-target kinases (Homo sapiens, UniProt O75582); conditions: RPS6KA5 (MSK1), ZLYTE, ATP Km app
off-target kinases (Homo sapiens, UniProt O75582), sequence (O75582 whole entry): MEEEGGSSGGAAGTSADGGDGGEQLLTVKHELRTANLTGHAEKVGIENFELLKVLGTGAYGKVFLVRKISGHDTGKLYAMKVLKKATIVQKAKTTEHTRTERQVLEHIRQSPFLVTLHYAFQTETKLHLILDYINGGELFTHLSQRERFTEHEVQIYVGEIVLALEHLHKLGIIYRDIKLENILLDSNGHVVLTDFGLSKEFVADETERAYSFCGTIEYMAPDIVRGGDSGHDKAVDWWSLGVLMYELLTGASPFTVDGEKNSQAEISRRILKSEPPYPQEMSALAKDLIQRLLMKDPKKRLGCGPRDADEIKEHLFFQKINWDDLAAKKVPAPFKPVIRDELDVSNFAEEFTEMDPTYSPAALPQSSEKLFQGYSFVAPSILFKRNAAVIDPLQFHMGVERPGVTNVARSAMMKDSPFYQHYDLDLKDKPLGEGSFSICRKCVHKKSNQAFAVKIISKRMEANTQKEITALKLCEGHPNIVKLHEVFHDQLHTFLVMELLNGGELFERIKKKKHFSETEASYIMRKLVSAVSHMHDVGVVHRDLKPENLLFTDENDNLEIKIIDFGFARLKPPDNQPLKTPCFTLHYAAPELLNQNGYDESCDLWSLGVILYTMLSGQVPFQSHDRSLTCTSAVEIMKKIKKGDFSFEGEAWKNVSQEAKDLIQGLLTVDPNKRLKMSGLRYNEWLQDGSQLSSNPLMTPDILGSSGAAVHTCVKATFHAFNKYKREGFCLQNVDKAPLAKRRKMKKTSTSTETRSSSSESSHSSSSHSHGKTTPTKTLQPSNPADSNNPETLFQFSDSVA

off-target kinases [6] = molecular target: off-target kinases (Homo sapiens, UniProt P09619); conditions: PDGFRB (PDGFR beta), ZLYTE, ATP Km app
off-target kinases [7] = molecular target: off-target kinases (Homo sapiens, UniProt P15056); conditions: BRAF; for inhibition: LanthaScreen Binding
off-target kinases (Homo sapiens, UniProt P15056), sequence (P15056 whole entry): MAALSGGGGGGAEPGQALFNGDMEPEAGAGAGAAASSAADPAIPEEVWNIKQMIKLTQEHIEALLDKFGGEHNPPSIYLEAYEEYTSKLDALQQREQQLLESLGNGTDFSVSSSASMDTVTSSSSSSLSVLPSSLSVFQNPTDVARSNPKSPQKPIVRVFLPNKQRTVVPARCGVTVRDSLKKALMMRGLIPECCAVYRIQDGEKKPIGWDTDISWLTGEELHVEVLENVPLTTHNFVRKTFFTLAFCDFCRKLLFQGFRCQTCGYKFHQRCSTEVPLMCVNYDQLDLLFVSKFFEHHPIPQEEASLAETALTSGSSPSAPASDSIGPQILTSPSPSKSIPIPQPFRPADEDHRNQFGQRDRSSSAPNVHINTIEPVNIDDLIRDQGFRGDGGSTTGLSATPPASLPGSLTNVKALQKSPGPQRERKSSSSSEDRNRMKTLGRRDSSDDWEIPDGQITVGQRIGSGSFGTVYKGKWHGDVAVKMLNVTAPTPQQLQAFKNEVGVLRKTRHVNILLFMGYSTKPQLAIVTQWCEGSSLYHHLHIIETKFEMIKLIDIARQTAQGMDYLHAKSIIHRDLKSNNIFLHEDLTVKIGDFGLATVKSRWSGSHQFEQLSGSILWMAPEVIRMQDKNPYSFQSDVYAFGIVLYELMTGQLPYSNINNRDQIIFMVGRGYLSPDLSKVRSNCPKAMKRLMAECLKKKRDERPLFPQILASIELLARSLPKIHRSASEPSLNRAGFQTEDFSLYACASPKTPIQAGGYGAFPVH

off-target kinases [8] = molecular target: off-target kinases (Homo sapiens, UniProt Q9H4B4); conditions: PLK3, ATP Km app, ZLYTE
off-target kinases (Homo sapiens, UniProt Q9H4B4), sequence (Q9H4B4 whole entry): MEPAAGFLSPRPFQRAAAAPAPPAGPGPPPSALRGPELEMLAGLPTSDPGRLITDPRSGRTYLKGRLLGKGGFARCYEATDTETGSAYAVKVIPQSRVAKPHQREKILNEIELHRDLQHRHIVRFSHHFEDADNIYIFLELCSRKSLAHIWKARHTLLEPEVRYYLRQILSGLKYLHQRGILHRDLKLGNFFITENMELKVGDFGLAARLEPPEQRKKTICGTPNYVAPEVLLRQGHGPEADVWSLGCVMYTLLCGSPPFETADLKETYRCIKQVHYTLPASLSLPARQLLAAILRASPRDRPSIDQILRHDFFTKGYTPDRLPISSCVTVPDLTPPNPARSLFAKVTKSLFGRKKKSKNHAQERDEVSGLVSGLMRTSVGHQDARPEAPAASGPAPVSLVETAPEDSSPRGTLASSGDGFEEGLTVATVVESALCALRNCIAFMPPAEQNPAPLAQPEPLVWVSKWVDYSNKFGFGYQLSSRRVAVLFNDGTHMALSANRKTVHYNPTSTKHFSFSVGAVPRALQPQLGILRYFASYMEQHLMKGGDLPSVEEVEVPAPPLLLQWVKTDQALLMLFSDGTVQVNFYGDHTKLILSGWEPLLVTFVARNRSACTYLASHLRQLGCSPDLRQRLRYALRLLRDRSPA

off-target kinases [9] = molecular target: off-target kinases (Homo sapiens, UniProt Q05397); conditions: PTK2 (FAK), ZLYTE, ATP Km app
off-target kinases (Homo sapiens, UniProt Q05397), sequence (Q05397 whole entry): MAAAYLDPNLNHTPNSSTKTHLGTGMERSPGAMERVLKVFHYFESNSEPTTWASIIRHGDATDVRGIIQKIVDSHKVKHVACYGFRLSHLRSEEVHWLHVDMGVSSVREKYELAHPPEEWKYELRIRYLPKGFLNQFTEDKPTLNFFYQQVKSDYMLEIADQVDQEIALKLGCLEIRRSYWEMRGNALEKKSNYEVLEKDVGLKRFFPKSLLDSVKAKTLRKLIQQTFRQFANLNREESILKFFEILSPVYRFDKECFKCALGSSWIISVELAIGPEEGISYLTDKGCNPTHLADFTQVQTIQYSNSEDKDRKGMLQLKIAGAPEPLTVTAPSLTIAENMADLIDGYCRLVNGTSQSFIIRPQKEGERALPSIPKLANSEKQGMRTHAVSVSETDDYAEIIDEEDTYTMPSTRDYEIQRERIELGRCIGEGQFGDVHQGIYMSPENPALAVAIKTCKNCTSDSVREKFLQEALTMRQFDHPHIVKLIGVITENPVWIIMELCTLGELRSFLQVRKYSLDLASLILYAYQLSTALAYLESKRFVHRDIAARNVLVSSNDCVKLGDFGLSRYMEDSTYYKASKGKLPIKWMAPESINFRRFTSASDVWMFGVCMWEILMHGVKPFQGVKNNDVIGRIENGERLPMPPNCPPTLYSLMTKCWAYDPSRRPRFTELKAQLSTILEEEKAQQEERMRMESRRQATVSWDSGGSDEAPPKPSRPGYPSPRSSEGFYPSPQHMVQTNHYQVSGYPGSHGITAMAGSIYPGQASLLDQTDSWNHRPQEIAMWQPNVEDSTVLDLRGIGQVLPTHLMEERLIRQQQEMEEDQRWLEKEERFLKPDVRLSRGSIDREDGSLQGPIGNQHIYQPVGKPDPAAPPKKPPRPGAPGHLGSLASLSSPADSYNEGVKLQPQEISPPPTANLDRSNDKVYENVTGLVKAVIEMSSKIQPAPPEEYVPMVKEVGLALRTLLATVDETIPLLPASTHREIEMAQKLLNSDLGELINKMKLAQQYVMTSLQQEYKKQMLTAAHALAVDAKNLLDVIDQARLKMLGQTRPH

off-target kinases (Homo sapiens, UniProt Q8IU85), sequence (Q8IU85 whole entry): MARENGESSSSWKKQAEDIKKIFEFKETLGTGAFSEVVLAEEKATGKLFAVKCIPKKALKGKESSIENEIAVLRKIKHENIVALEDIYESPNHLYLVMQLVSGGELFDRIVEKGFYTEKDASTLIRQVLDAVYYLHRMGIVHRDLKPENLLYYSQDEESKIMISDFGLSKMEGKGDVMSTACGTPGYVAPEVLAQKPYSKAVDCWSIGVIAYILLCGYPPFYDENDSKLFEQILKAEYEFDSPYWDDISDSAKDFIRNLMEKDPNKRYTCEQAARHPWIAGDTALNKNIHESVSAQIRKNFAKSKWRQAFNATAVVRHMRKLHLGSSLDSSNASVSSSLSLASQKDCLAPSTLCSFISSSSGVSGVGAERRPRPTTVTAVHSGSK

Q: What does the source list for N#Cc1cc(-c2ncnc(Nc3ccc(N4CCN(C5COC5)CC4)cc3)n2)ccc1OC1CCOCC1 [Compound 1, 5-(4-((4-(4-(oxetan-3-yl)piperazin-1-yl)phenyl)amino)-1,3,5-triazin-2-yl)-2-((tetrahydro-2H-pyran-4-yl)oxy)benzonitrile]?
A: inhibition (off-target kinases [1]; read-out: % Inhibition 1): 12%; inhibition (off-target kinases [1]; read-out: % Inhibition 2): 13%; inhibition (off-target kinases [1]; read-out: % Inhibition Avg): 12%; inhibition (off-target kinases [2]; read-out: % Inhibition 1): 54%; inhibition (off-target kinases [2]; read-out: % Inhibition 2): 48%; inhibition (off-target kinases [2]; read-out: % Inhibition Avg): 51%; inhibition (off-target kinases [3]; read-out: % Inhibition 1): 9%; inhibition (off-target kinases [3]; read-out: % Inhibition 2): 4%; inhibition (off-target kinases [3]; read-out: % Inhibition Avg): 6%; inhibition (off-target kinases [4]; read-out: % Inhibition 1): 65%; inhibition (off-target kinases [4]; read-out: % Inhibition 2): 50%; inhibition (off-target kinases [4]; read-out: % Inhibition Avg): 58%; inhibition (off-target kinases [5]; read-out: % Inhibition 1): 6%; inhibition (off-target kinases [5]; read-out: % Inhibition 2): 3%; inhibition (off-target kinases [5]; read-out: % Inhibition Avg): 4%; inhibition (off-target kinases [6]; read-out: % Inhibition 1): 34%; inhibition (off-target kinases [6]; read-out: % Inhibition 2): 30%; inhibition (off-target kinases [6]; read-out: % Inhibition Avg): 32%; % Inhibition 1 (off-target kinases [7]; Cmpd1 1000 μM, ATP 100, ZLYTE): −18%; % Inhibition 2 (off-target kinases [7]; Cmpd1 1000 μM, ATP 100, ZLYTE): −10%; % Inhibition Avg (off-target kinases [7]; Cmpd1 1000 μM, ATP 100, ZLYTE): −14%; inhibition (off-target kinases [7]; read-out: % Inhibition 1): 44%; inhibition (off-target kinases [7]; read-out: % Inhibition 2): 47%; inhibition (off-target kinases [7]; read-out: % Inhibition Avg): 46%; inhibition (off-target kinases [8]; read-out: % Inhibition 1): 80%; inhibition (off-target kinases [8]; read-out: % Inhibition 2): 76%; inhibition (off-target kinases [8]; read-out: % Inhibition Avg): 78%; inhibition (off-target kinases [9]; read-out: % Inhibition 1): 0%; inhibition (off-target kinases [9]; read-out: % Inhibition 2): 2%; inhibition (off-target kinases [9]; read-out: % Inhibition Avg): 1%
